Our source for the IC50 and IC90 values is ChEMBL document CHEMBL4483862, “Open-source discovery of chemical leads for next-generation chemoprotective antimalarials” (2018).

This assay concerns Plasmodium berghei. Description: Luciferase/luciferin-expressing antifolate-resistant parasites were used to infect a culture of HepG2 cells that were pre-incubated with compounds. Infected hepatocytes emit light due to the luciferase reaction. Assay results are presented as the percent inhibition of light emission compared to control. […]. The format is functional. As to conditions: sporozoite; for IC50: read-out: LUCIFERASE INFECTION ASSAY - IC50; for IC90: read-out: LUCIFERASE INFECTION ASSAY - IC90.

Molecules are shown by their SMILES. A value given as a limit tells only on which side of the number the result lay.

In the case of `O=C(c1cc(S(=O)(=O)Nc2cccc(-n3cccn3)c2)c[nH]1)N1CCCC1`, the IC50 turned out to be 9.51 µM and the IC90 was > 10 µM.
The like results for `CN1CCCN(c2ccc(NC(=O)OCC(F)(F)F)cc2F)CC1` were, in that order, > 10 µM and > 10 µM.
The like results for `CC(C)c1nccn1Cc1cccc(NC(=O)c2ccc(Br)o2)c1` were, in that order, > 10 µM and > 10 µM.
On the same counts, the results for `O=C(NCc1ccc(N2CCCCC2)nc1)c1cccc2c[nH]nc12` are > 10 µM and > 10 µM.
Turning to `CC(C)Sc1ncccc1C(=O)N1CCN(c2oc(C3CC3)nc2C#N)CC1`, the IC50 was > 10 µM and the IC90 is > 10 µM.
As to `COc1ccc(Sc2ccc(NC(=O)C(C)n3ccnc3)cc2Cl)cc1` (stereo not given), the IC50 was > 10 µM and the IC90 was > 10 µM.
In the case of `Cc1nc(NC(=O)c2ccc(-n3ccnc3)nc2)sc1SCC#N`, the IC50 was > 10 µM and the IC90 is > 10 µM.
Regarding `Cc1nn2c(=O)cc(Cn3ccnc3)nc2s1`, the IC50 was > 10 µM and the IC90 is > 10 µM.
Take `Cc1ccc(Br)cc1NC(=O)C(C)NC(=O)OC(C)(C)C` (stereo not given): the IC50 is > 10 µM and the concentration for an effect of 90% (IC90) was > 10 µM.
For the molecule `CCOc1ccc(N2CC(C(=O)N3CCCC(c4nc(C)no4)C3)CC2=O)cc1` (stereo not given), the IC50 was > 10 µM and the concentration for an effect of 90% (IC90) was > 10 µM.
Take `Cn1cnnc1C1CCCN(S(C)(=O)=O)C1` (stereo not given): the IC50 is > 10 µM and the IC90 is > 10 µM.
Regarding `CCCOc1ccc2ccccc2c1CN(C)c1cncc(-n2cccn2)n1`, the IC50 is > 10 µM and the concentration for an effect of 90% (IC90) was > 10 µM.
`O=C(COC(=O)Cc1ccsc1)Nc1cc(Cl)ccc1-n1cncn1`: the IC50 was > 10 µM and the concentration for an effect of 90% (IC90) is > 10 µM.
For the molecule `N#Cc1ccccc1S(=O)(=O)Nc1cccc(-n2cccn2)c1`, the IC50 was > 10 µM and the 90% effect concentration (IC90) is > 10 µM.
In the case of `CN(C)C(=O)CC(NC(=O)Nc1ccc(F)cc1F)c1ccccc1` (stereo not given), the IC50 was > 10 µM and the IC90 was > 10 µM.
Turning to `CNS(=O)(=O)Cc1ccccc1CNCc1ccc(OC(F)F)cc1`, the IC50 was > 10 µM and the IC90 was > 10 µM.
In the case of `CNS(=O)(=O)Cc1ccccc1CNCc1cccc(Oc2ccccc2)c1`, the IC50 is > 10 µM and the IC90 was > 10 µM.
As for `Cc1cc(Cl)ccc1NC(=O)c1cn(C)nc1C(F)(F)F`, the IC50 is > 10 µM and the IC90 is > 10 µM.
With `CC(=O)Nc1nc(C(=O)Nc2nc3ccccc3n2C2CCCCC2)cs1`, the IC50 is > 10 µM and the IC90 is > 10 µM.
For the molecule `Cc1nnc(SC2CCCCC2=O)n1C1CCCCC1` (stereo not given), the IC50 is > 10 µM and the IC90 was > 10 µM.
`CC(=O)c1c(C)cc(C)c(CN2C(=O)CN(c3ccccc3)C2=O)c1C`: the half-inhibitory concentration (IC50) was > 10 µM and the IC90 was > 10 µM.
Regarding `Cn1c(Cn2nnc(-c3cccc(F)c3)n2)nc2ccccc2c1=O`, the IC50 was > 10 µM and the 90% effect concentration (IC90) was > 10 µM.
With `CC(C)c1noc(COC(=O)c2ccc(-c3ccc(O)cc3)cc2)n1`, the IC50 is > 10 µM and the IC90 is > 10 µM.
As to `CC(Cc1ccco1)NCc1ccc(-n2ccnc2)cc1` (stereo not given), the IC50 was > 10 µM and the IC90 is > 10 µM.
With `COc1cc(CNC(=O)c2scnc2C)ccc1OC1CCCC1`, the IC50 worked out at 2.89 µM and the IC90 was > 10 µM.
On to `CCCS(=O)(=O)N1CCC(NC(=O)c2scnc2C)CC1`, for which the IC50 is > 10 µM and the IC90 was > 10 µM.
Consider `CC(=O)c1cc2c(cc1NC(=O)c1ccc(Cn3cccn3)cc1)OCO2`, for which the IC50 is > 10 µM and the IC90 is > 10 µM.
With `Cc1[nH]c(C(=O)N2CCN(CC3CCCCC3)CC2)c(C)c1C(=O)OC(C)C`, the half-maximal inhibitory concentration (IC50) is > 10 µM and the IC90 is > 10 µM.
In the case of `CN(CCCN1C(=O)c2ccccc2C1=O)CC(=O)N(C)C`, the IC50 is > 10 µM and the IC90 is > 10 µM.
Turning to `COc1ccccc1-c1cc(C(=O)Nc2ccc(N3CCCC3)cc2)no1`, the IC50 is > 10 µM and the IC90 is > 10 µM.

By IC50 is commonly meant the concentration at which inhibition is half-maximal. A word on the IC90: it is the point of the concentration-response curve where the effect stands at 90%.
